Consider 23 compounds from patent US12612424B2, “HPK1 inhibitors and uses thereof” (Regor Pharmaceuticals, Inc., priority 2019, dated 2026).

The experiment deals with Human Pan T Cell (IL-2 release). Kind of experiment: IL2 released by human pan T cell upon anti-CD3/anti-CD28 stimulation (ELISA). In kind it is cell-based. To be noted: human pan T cells; for EC (2-fold response) / maximal fold induction: 48 h; for EC (2-fold response) / EC2x (nM): concentration of compound that gives 200% IL-2 response (2 folds) over DMSO control; for maximal fold induction: read-out: IL-2 Max Fold Response; for EC50: IL-2 response, calculated with GraphPad Prism. An excerpt:
For example, Example 5 describes such a functional assay for determining the effect of an HPK1 inhibitor on IL-2 & IFN-γ release upon stimulation of Pan T cells. The secreted IL-2 & IFN-γ can be measured/quantified by standard ELISA assay. Briefly, pan T cells can be isolated from peripheral blood (PB) mononuclear cells (MNCs), or PBMC, using commercially available kits, such as MACS (Miltenyl Biotec) Pan T isolation kit (Cat. No. 130-096-535). Primary human pan-T cells include CD4 and CD8 T cells as well as some gamma/delta T cell subsets. The pan-T cells can be isolated using the negative immunomagnetic separation technique without the use of columns.
Isolated pan-T cells can be dispensed into 96-well plates at 100,000 cells/well, and stimulated with immobilized anti-CD3 antibody and soluable anti-CD28 antibody, or PMA/Ionomycin as the positive control (or culture media as the negative control). Different concentrations of test compounds can be added to the cells to assess the compound effect on cytokine secretion following TCR-stimulation/CD28 co-stimulation. Stimulated cells are incubated for 2 more days, before the supernatant (containing secreted cytokines by pan-T cells) is collected from each well for ELISA assay and quantitation of IL-2 and IFN-γ.
Biology Example 8 Compound Efficacy Study on IL2 & IFN-γ Released by Human Pan T Cell
This example is an assay method that can be used to determine compound effects on IL2 & IFN-γ release using pan T cells and ELISA assay format.
3. Procedures Procedures for Pan T isolation and Reagent preparation (Day 0): 1. Cell Growth Medium: • RPMI1640: ATCC, Cat #30-2001 • 10% FBS: Gibco, Cat #10099141 • 1% Pen-Strep: Gibco, Cat #15140122 • 1% Non-essential amino: Gibco, Cat #11140050 • Beta-Mercaptoethanol: Gibco, Cat #21985023 2. Pan T Isolation Buffer Preparation:
Prepare a solution containing phosphate-buffered saline (PBS), pH 7.2, 0.5% bovine serum albumin (BSA), and 2 mM EDTA by diluting MACS® BSA Stock Solution (#130-091-376) 20 times with autoMACS® Rinsing Solution. Keep buffer at 4° C. Degas buffer before use, as air bubbles could block the column.
3. Thawing of Frozen PBMC • 1) Pre-heat medium at 37° C. water bath. • 2) Rapidly thaw cells in 37° C. water bath. • 3) Add the pre-warmed medium into 15 mL tube. Transfer cells to the tube. • 4) 300×g centrifuge for 8 min. (centrifuge increase 0, decrease 0). • 5) Wash the PBMC using Rinsing buffer. • 6) Centrifuge PBMC at 300×g for 8 min, wash it twice (centrifuge increase 9, decrease 1). • 7) Resuspend the cells with Pan T cells isolation buffer and count cells number. 4. Pan T Cells Isolation: Cell Staining with Microbead Cocktail • 1) Prepare cells and determine cell number. Filter cells by 70 μm cell strainer. • 2) Resuspend cell pellet in 40 μL of buffer per 10^7 total cells. • 3) Add 10 μL of Pan T Cell Biotin-Antibody Cocktail per 10^7 total cells. • 4) Mix well and incubate for 10 minutes in the refrigerator (ice). • 5) Add 30 μL of buffer per 10^7 total cells. • 6) Add 20 μL of Pan T Cell MicroBead Cocktail per 10^7 total cells. • 7) Mix well and incubate for 15 minutes in the refrigerator (ice). • 8) Proceed to subsequent magnetic cell separation. • Note: a. Work fast, keep cells cold, and use pre-cooled solutions (2-8° C.). b. Volumes for magnetic labeling given are for up to 10′ total cells. When working with fewer cells, use the same volumes as indicated. c. When working with higher cell numbers, scale up all reagent volumes and total volumes accordingly. d. For optimal performance it is important to obtain a single-cell suspension before magnetic labeling. Subsequent Manual Cell Separation: • 1) Place LS Column in the magnetic field of a suitable MACS Separator. For details refer to the respective MACS Column data sheet. • 2) Prepare column by rinsing with 3 mL of buffer. • 3) Apply cell suspension onto the column. Collect flow-through, which represents the enriched T cells. • 4) Wash column with 5 mL of buffer. […]

Where [1] appears, read: Homo sapiens, T-cell, response of IL-2 over DMSO control, anti-CD3/anti-CD28, 48 hours, ELISA.

Structures are written as SMILES.

The EC50 is the concentration needed to bring the measured effect to its halfway point. With `COc1cc2c(cc1Nc1ncc(Cl)c(N3CC(C(=O)O)c4cc(F)ccc43)n1)CN(C)CC2` (stereo not shown) [Example 104], where the note is “Homo sapiens, T-cell”, the EC (2-fold response) lay in the range of 0.1 to 0.5 µM and the concentration giving a half-maximal response (EC50) was 100 to 500 nM. In addition, the maximal fold induction under setting [1] is greater than 2.
Regarding `COc1cc2c(cc1Nc1ncc(Cl)c(N3CCc4ccc(Cl)cc43)n1)CN(C)CC2` [Example 18, N-(5-chloro-4-(6-chloroindolin-1-yl)pyrimidin-2-yl)-6-methoxy-2-methyl-1,2,3,4-tetrahydroisoquinolin-7-amine], under setting [1], the maximal fold induction was less than 2. The EC50 (Homo sapiens, T-cell) is 100 to 500 nM.
With `COc1cc2c(cc1Nc1ncc(Cl)c(N3CC(S(C)(=O)=O)c4ccccc43)n1)CN(C)CC2` (stereo not shown) [Example 81, N-(5-chloro-4-(3-(methylsulfonyl)indolin-1-yl)pyrimidin-2-yl)-6-methoxy-2-methyl-1,2,3,4-tetrahydroisoquinolin-7-amine], for the setting “Homo sapiens, T-cell”, the EC (2-fold response) was 0.1 to 0.5 µM and the half-maximal effective concentration (EC50) was 500 to 1000 nM. The maximal fold induction under setting [1] was greater than 2.
For `COc1cc2c(cc1Nc1ncc(Cl)c(N3CC(C(=O)NS(C)(=O)=O)c4ccccc43)n1)CN(C)CC2` (stereo not shown) [Example 98], the maximal fold induction under setting [1] is less than 2.
With `COc1cc2c(cc1Nc1ncc(Cl)c(-n3cc(CC(=O)NCC#N)c4ccccc43)n1)CN(C)CC2` [Example 137], under setting [1], the maximal fold induction was less than 2. Further, for the setting “Homo sapiens, T-cell”, the EC50 is 500 to 1000 nM.
Turning to `COc1cc2c(cc1Nc1ncc(Cl)c(N3CC(C(=O)N(C)O)c4ccccc43)n1)CN(C)CC2` (stereo not shown) [Example 102], the maximal fold induction under setting [1] was less than 2.
On to `CN1CCc2ccc(Nc3ncc(Cl)c(N4CCc5ccccc54)n3)cc2C1` [Example 14, N-(5-Chloro-4-(indolin-1-yl)pyrimidin-2-yl)-2-methyl-1,2,3,4-tetrahydroisoquinolin-7-amine], for which, under setting [1], the maximal fold induction is less than 2.
For the compound `COc1cc2c(cc1Nc1ncc(Cl)c(N3CC(C(=O)O)c4c(OC)cccc43)n1)CN(C)CC2` (stereo not shown) [Example 108, 1-(5-Chloro-2-((6-methoxy-2-methyl-1,2,3,4-tetrahydroisoquinolin-7-yl)amino)pyrimidin-4-yl)-4-methoxyindoline-3-carboxylic acid], the maximal fold induction under setting [1] is less than 2. Moreover, the EC50 (Homo sapiens, T-cell) was greater than 1000 nM.
As to `COc1cc2c(cc1Nc1ncc(Cl)c(N3CC(C)(CC(=O)O)c4cc(F)ccc43)n1)CN(C)CC2` (stereo not shown) [Example 150, 2-(1-(5-Chloro-2-((6-methoxy-2-methyl-1,2,3,4-tetrahydroisoquinolin-7-yl)amino)pyrimidin-4-yl)-5-fluoro-3-methylindolin-3-yl)acetic acid], where the note is “Homo sapiens, T-cell”, the EC (2-fold response) was no more than 0.1 µM and the EC50 was no more than 100 nM. Further, under setting [1], the maximal fold induction is greater than 2.
For `COc1cc2c(cc1Nc1ncc(Cl)c(N3CC(C)(CC(=O)O)c4ccc(F)cc43)n1)CN(C)CC2` (stereo not shown) [Example 151] the same measures were no more than 0.1 µM, no more than 100 nM and greater than 2.
Take `COc1cc2c(cc1Nc1ncc(Cl)c(-n3cc(CC(=O)O)c4ccc(F)cc43)n1)CN(C)CC2` [Example 139]: for the setting “Homo sapiens, T-cell”, the EC (2-fold response) was no more than 0.1 µM and the concentration for a half-maximal effect (EC50) is no more than 100 nM. For the same compound, the maximal fold induction under setting [1] is greater than 2.
Regarding `COc1cc2c(cc1Nc1ncc(F)c(N3CC(C(=O)O)c4ccccc43)n1)CN(C)CC2` (stereo not shown) [Example 109, 1-(5-Fluoro-2-((6-methoxy-2-methyl-1,2,3,4-tetrahydroisoquinolin-7-yl)amino)pyrimidin-4-yl)indoline-3-carboxylic acid], the “EC2x (nM)” value is reported as “++ (“++”, for higher values than “+++” but less than or equal to 1 μM)”. Also, under setting [1], the maximal fold induction is greater than 2. The EC50 (Homo sapiens, T-cell) is 100 to 500 nM.
Take `COc1cc2c(cc1Nc1ncc(Cl)c(-n3cc(C(C)C(=O)O)c4ccccc43)n1)CN(C)CC2` (stereo not shown) [Example 142]: the maximal fold induction under setting [1] was less than 2. Further, where the note is “Homo sapiens, T-cell”, the 50% effective concentration (EC50) was 100 to 500 nM.
Regarding `COc1cc2c(cc1Nc1ncc(Cl)c(N3CC(C(=O)O)c4ccc(F)cc43)n1)CN(C)CC2` (stereo not shown) [Example 105], under “Homo sapiens, T-cell”, the EC (2-fold response) lay within 0.1 to 0.5 µM and the half-maximal effective concentration (EC50) was no more than 100 nM. Further, under setting [1], the maximal fold induction is greater than 2.
Turning to `CONC(=O)C1CN(c2nc(Nc3cc4c(cc3OC)CCN(C)C4)ncc2Cl)c2ccccc21` (stereo not shown) [Example 103, 1-(5-Chloro-2-((6-methoxy-2-methyl-1,2,3,4-tetrahydroisoquinolin-7-yl)amino)pyrimidin-4-yl)-N-methoxyindoline-3-carboxamide], under setting [1], the maximal fold induction was less than 2.
With `COc1cc2c(cc1Nc1ncc(Cl)c(-n3ccc4ccccc43)n1)CN(C)CC2` [Example 2, N-(5-chloro-4-(1H-indol-1-yl)pyrimidin-2-yl)-6-methoxy-2-methyl-1,2,3,4-tetrahydroisoquinolin-7-amine], under setting [1], the maximal fold induction was less than 2.
In the case of `COc1cc2c(cc1Nc1ncc(Cl)c(N3CC(c4nn[nH]n4)c4ccccc43)n1)CN(C)CC2` (stereo not shown) [Example 100, N-(4-(3-(2H-tetrazol-5-yl)indolin-1-yl)-5-chloropyrimidin-2-yl)-6-methoxy-2-methyl-1,2,3,4-tetrahydroisoquinolin-7-amine], the “EC2x (nM)” value is “+ (“+”, for greater than 1 μM)”. For the same compound, the maximal fold induction under setting [1] is greater than 2. Also, the half-maximal effective concentration (EC50) (Homo sapiens, T-cell) is greater than 1000 nM.
In the case of `COc1cc2c(cc1Nc1ncc(Cl)c(-n3cc(CC#N)c4ccccc43)n1)CN(C)CC2` [Example 134], under setting [1], the maximal fold induction is less than 2. For the same compound, under “Homo sapiens, T-cell”, the EC50 is greater than 1000 nM.
As for `COc1cc2c(cc1Nc1ncc(Cl)c(-n3cc(C(=O)N(C)C)c4ccccc43)n1)CN(C)CC2` [Example 8], the maximal fold induction under setting [1] is less than 2.
As to `COc1cc2c(cc1Nc1ncc(Cl)c(N3CC4(CC4)c4ccccc43)n1)CN(C)CC2` [Example 84, N-(5-chloro-4-(spiro[cyclopropane-1,3′-indolin]-1′-yl)pyrimidin-2-yl)-6-methoxy-2-methyl-1,2,3,4-tetrahydroisoquinolin-7-amine], under setting [1], the maximal fold induction is less than 2. Also, the half-maximal effective concentration (EC50) (Homo sapiens, T-cell) is 500 to 1000 nM.
As for `CNC(=O)C1CN(c2nc(Nc3cc4c(cc3OC)CCN(C)C4)ncc2Cl)c2ccccc21` (stereo not shown) [Example 97, 1-(5-Chloro-2-((6-methoxy-2-methyl-1,2,3,4-tetrahydroisoquinolin-7-yl)amino)pyrimidin-4-yl)-N-methylindoline-3-carboxamide], the “EC2x (nM)” value is “++ (“++”, for higher values than “+++” but less than or equal to 1 μM)”. Besides, under setting [1], the maximal fold induction was greater than 2. Further, the EC50 (Homo sapiens, T-cell) was 100 to 500 nM.
For the compound `COc1cc2c(cc1Nc1ncc(Cl)c(N3CC(C)(CC(=O)O)c4ccc(F)cc43)n1)CN(C)CC2` (single isomer, unassigned) [Example 153], the half-maximal effective concentration (EC50) was 100 to 500 nM and the “EC2x (nM)” value was “+++ (“+++”, for higher values than “++++” but less than or equal to 500 nM)”. The “IL-2 Max Fold Response” value (response of IL-2 over DMSO control, anti-CD3/anti-CD28, 48 hours, ELISA) was greater than 2.
Consider `COc1cc2c(cc1Nc1ncc(Cl)c(-c3nn(CC(=O)O)c4ccccc34)n1)CN(C)CC2` [Example 162, 2-(3-(5-Chloro-2-((6-methoxy-2-methyl-1,2,3,4-tetrahydroisoquinolin-7-yl)amino)pyrimidin-4-yl)-1H-indazol-1-yl)acetic acid], for which the maximal fold induction under setting [1] was less than 2.
